Laboratory results taken from patent EP1377579B1 (Aventis Pharmaceuticals Inc., priority 2000, dated 2002).
pIC50: −log10 of the molar value. Counter-ions that a name gives are not always drawn. Like-named read-outs stand apart in the source and are kept apart here.

Columns and labels:
[1] = biological target: cdk2/cyclin E (Homo sapiens, UniProt P24941); experiment: Cyclin-dependent kinase assay, cdk2/cyclin E; conditions: CDK2 IC50, nM, GST-pRb substrate, 10 µM ATP
[2] = system: PC-3; experiment: In vitro proliferation assay (MTT), PC-3; format: cell-based, human; conditions: value (SD, n) where given, read-out: PC-3 Prostate (IC50 µM)
Procedure, shortened: (§1)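 Step one: plate 1000 to 2500 cells per well and let them recover overnight. Step two: treat with compound for 3 days. Step three: add MTT, dissolve dye in DMSO, read absorbance at 570 nm and determine IC50.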

[3] = biological target: cdk4/cyclin D1 (Homo sapiens, UniProt P11802); experiment: Cyclin-dependent kinase assay, cdk4/cyclin D1; format: biochemical; conditions: cyclin D1/cdk4; GST-pRb substrate, 10 µM ATP
[4] = biological target: cdk1/cyclin B (Homo sapiens, UniProt P06493); experiment: Cyclin-dependent kinase assay, cdk1/cyclin B; conditions: CDK1 IC50, nM, Histone H1, 10 µM ATP
[5] = system: MDA-MB-435; experiment: In vitro proliferation assay (MTT), MDA-MB-435; format: cell-based, human; conditions: value (SD, n) where given, read-out: MB-435 Breast (IC50 µM)
Procedure, shortened: as §1

[6] = Homo sapiens, MDA-MB-435, MTT assay

Chain of cdk1/cyclin B (P06493 whole entry): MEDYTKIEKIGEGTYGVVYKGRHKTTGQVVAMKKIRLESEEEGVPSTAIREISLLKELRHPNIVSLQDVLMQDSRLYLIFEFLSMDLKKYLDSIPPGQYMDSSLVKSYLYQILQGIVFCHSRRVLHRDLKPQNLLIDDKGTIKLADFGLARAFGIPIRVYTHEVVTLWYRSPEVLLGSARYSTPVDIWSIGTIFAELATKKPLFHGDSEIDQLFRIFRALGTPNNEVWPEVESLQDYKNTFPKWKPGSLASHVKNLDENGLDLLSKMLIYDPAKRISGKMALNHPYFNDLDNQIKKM
Chain of cdk1/cyclin B (P14635 whole entry partner): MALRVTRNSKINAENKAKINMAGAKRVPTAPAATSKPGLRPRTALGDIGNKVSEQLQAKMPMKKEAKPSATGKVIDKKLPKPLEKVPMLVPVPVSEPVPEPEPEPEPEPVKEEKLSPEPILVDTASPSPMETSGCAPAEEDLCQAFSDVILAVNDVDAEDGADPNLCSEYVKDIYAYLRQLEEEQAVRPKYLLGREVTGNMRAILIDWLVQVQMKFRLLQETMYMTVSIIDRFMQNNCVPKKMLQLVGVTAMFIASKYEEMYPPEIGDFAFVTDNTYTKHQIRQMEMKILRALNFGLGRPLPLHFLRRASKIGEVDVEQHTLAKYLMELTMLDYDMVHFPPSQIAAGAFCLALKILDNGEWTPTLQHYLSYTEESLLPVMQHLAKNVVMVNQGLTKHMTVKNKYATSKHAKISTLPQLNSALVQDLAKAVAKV
Chain of cdk4/cyclin D1 (P11802 whole entry): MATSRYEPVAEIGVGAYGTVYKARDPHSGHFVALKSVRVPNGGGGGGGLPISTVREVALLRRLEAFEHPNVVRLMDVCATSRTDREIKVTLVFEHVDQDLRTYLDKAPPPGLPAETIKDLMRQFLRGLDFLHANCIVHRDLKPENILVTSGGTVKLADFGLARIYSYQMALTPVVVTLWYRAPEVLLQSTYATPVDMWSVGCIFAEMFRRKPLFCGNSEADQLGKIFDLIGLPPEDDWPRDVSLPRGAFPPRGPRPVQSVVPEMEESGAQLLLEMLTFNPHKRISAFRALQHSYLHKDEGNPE
Chain of cdk4/cyclin D1 (P24385 whole entry partner): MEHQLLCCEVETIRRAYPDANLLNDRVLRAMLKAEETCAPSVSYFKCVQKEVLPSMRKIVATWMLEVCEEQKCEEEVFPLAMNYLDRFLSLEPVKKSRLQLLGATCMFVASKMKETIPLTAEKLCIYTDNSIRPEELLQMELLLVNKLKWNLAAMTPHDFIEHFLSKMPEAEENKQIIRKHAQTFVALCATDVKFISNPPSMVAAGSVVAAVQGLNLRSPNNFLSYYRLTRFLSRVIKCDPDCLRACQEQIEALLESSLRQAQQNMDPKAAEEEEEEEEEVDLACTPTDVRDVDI

| IC50 [1] | IC50 ([2]; Homo sapiens, PC-3, MTT assay) | pIC50 [3] | IC50 [4] | IC50 [5, 6] | IC50 ([2]; MTT assay) | IC50 ([5]; MTT assay) | SMILES |
| --- | --- | --- | --- | --- | --- | --- | --- |
| 79 nM | 2.72 µM | 6.20 | 56 nM | 3.76 µM | – | – | N#Cc1ccc(C(=O)N2CCC(Nc3nc(N[C@H]4CC[C@H](N)CC4)nc4c3ncn4C3CCCC3)CC2)cc1 [compound 25, trans-1-{4-[2-(4-Amino-cyclohexylamino)-9-cyclopentyl-9H-purin-6-ylamino]-piperidin-1-yl}-1-(4-cyano-phenyl)-methanone] |
| 441 nM | 38 µM | 5.50 | 824 nM | 50 µM | – | – | N[C@H]1CC[C@H](Nc2nc(NC3CCN(C(=O)c4cccnc4)CC3)c3ncn(C4CCCC4)c3n2)CC1 [compound 67, trans-1-{4-[2-(4-Amino-cyclohexylamino)-9-cyclopentyl-9H-purin-6-ylamino]-piperidin-1-yl}-1-pyridin-3-yl-methanone] |
| 179 nM | 1.04 µM | 6.10 | 57 nM | 1.47 µM | – | – | N[C@H]1CC[C@H](Nc2nc(NC3CCN(C(=O)c4ccc(I)cc4)CC3)c3ncn(C4CCCC4)c3n2)CC1 [compound 76, trans-1-{4-[2-(4-Amino-cyclohexylamino)-9-cyclopentyl-9H-purin-6-ylamino]-piperidin-1-yl}-1-(4-iodo-phenyl)-methanone] |
| 89 nM | – | 6.06 | 51 nM | – | 0.03 µM | 0.03 µM | N[C@H]1CC[C@H](Nc2nc(NC3CCN(C(=O)c4cccc(Cl)c4)CC3)c3ncn(C4CCCC4)c3n2)CC1 [compound 72, trans-1-{4-[2-(4-Amino-cyclohexylamino)-9-cyclopentyl-9H-purin-6-ylamino]-piperidin-1-yl}-1-(3-chloro-phenyl)-methanone] |
| 8 nM | 0.68 µM | 7.14 | 180 nM | 0.47 µM | – | – | Cc1ccccc1NC(=O)N1CCC(Nc2nc(N[C@H]3CC[C@H](N)CC3)nc3c2ncn3C2CCCC2)CC1 [compound 208, trans-4-[2-(4-Amino-cyclohexylamino)-9-cyclopentyl-9H-purin-6-ylamino]-piperidine-1-carboxylic acid (2-methyl-phenyl)-amide dihydrochloride] |
| 2 nM | 0.59 µM | 8.22 | 350 nM | 0.5 µM | – | – | Cc1cccc(Cl)c1NC(=O)N1CCC(Nc2nc(N[C@H]3CC[C@H](N)CC3)nc3c2ncn3C2CCCC2)CC1 [compound 196, trans-4-[2-(4-Amino-cyclohexylamino)-9-cyclopentyl-9H-purin-6-ylamino]-piperidine-1-carboxylic acid (2-chloro-6-methyl-phenyl)-amide dihydrochloride] |
| 364 nM | 2.55 µM | 6.43 | 197 nM | 2.89 µM | – | – | N[C@H]1CC[C@H](Nc2nc(NC3CCN(C(=O)c4ccccc4Br)CC3)c3ncn(C4CCCC4)c3n2)CC1 [compound 13, trans-1-{4-[2-(4-Amino-cyclohexylamino)-9-cyclopentyl-9H-purin-6-ylamino]-piperidin-1-yl}-1-(2-bromo-phenyl)-methanone] |
| 79 nM | 0.39 µM | 5.79 | 75 nM | 0.28 µM | – | – | N[C@H]1CC[C@H](Nc2nc(NC3CCN(C(=O)NC4CC4c4ccccc4)CC3)c3ncn(C4CCCC4)c3n2)CC1 (mixture of isomers) [compound 156, (±)-trans-4-[2-(4-Amino-cyclohexylamino)-9-cyclopentyl-9H-purin-6-ylamino]-piperidine-1-carboxylic acid (2-phenyl-cyclopropyl)-amide dihydrochloride] |
| 43 nM | 0.44 µM | 6.32 | 20 nM | 0.33 µM | – | – | COc1cccc(NC(=O)N2CCC(Nc3nc(N[C@H]4CC[C@H](N)CC4)nc4c3ncn4C3CCCC3)CC2)c1 [compound 155, trans-4-[2-(4-Amino-cyclohexylamino)-9-cyclopentyl-9H-purin-6-ylamino]-piperidine-1-carboxylic acid (3-methoxy-phenyl)-amide dihydrochloride] |

Continued, molecule first:

| SMILES | IC50 [1] | IC50 ([2]; Homo sapiens, PC-3, MTT assay) | pIC50 [3] | IC50 [4] | IC50 [5, 6] | IC50 ([2]; MTT assay) | IC50 ([5]; MTT assay) |
| --- | --- | --- | --- | --- | --- | --- | --- |
| N[C@H]1CC[C@H](Nc2nc(NC3CCN(C(=O)Nc4ccc(Cl)cc4Cl)CC3)c3ncn(C4CCCC4)c3n2)CC1 [compound 167, trans-4-[2-(4-Amino-cyclohexylamino)-9-cyclopentyl-9H-purin-6-ylamino]-piperidine-1-carboxylic acid (2,4-dichloro-phenyl)-amide dihydrochloride] | 54 nM | 0.38 µM | 7.20 | 4 nM | 0.28 µM | – | – |
| CCCCCc1ccc(C(=O)N2CCC(Nc3nc(N[C@H]4CC[C@H](N)CC4)nc4c3ncn4C3CCCC3)CC2)cc1 [compound 22, trans-1-{4-[2-(4-Amino-cyclohexylamino)-9-cyclopentyl-9H-purin-6-ylamino]-piperidin-1-yl}-1-(4-pentyl-phenyl)-methanone] | 571 nM | 1.86 µM | 6.42 | 182 nM | 1.61 µM | – | – |
| CC(C)C(=O)N1CCC(Nc2nc(N[C@H]3CC[C@H](N)CC3)nc3c2ncn3C2CCCC2)CC1 [compound 59, trans-1-{4-[2-(4-Amino-cyclohexylamino)-9-cyclopentyl-9H-purin-6-ylamino]-piperidin-1-yl) -2-methyl-propan-1-one dihydrochloride] | 52 nM | 0.96 µM | 6.14 | 93 nM | 0.62 µM | – | – |
| N[C@H]1CC[C@H](Nc2nc(NC3CCN(S(=O)(=O)c4ccccc4[N+](=O)[O-])CC3)c3ncn(C4CCCC4)c3n2)CC1 [compound 143, trans-N^2-(4-Amino-cyclohexyl)-9-cyclopentyl-N^6-[1-(2-nitro-benzenesulfonyl)-piperidin-4-yl]-9H-purine-2,6-diamine dihydrochloride] | 28 nM | 0.45 µM | 6.81 | 7.5 nM | 0.61 µM | – | – |
| N[C@H]1CC[C@H](Nc2nc(NC3CCN(C(=O)C(c4ccccc4)c4ccccc4)CC3)c3ncn(C4CCCC4)c3n2)CC1 [compound 40, trans-1-{4-[2-(4-Amino-cyclohexylamino)-9-cyclopentyl-9H-purin-6-ylamino]-piperidin-1-yl}-2,2-diphenyl-ethanone dihydrochloride] | 61 nM | 0.27 µM | 6.62 | 36 nM | 0.22 µM | – | – |
| CCOC(=O)NC(=O)N1CCC(Nc2nc(N[C@H]3CC[C@H](N)CC3)nc3c2ncn3C2CCCC2)CC1 [compound 173, trans-(1-{4-[2-(4-Amino-cyclohexylamino)-9-cyclopentyl-9H-purin-6-ylamino]-piperidin-1-yl}-methanoyl)-carbamic acid ethyl ester dihydrochloride] | 30 nM | 2.81 µM | 6.37 | 18 nM | 2.67 µM | – | – |
| Cc1ccc(S(=O)(=O)N2CCC(Nc3nc(N[C@H]4CC[C@H](N)CC4)nc4c3ncn4C3CCCC3)CC2)cc1 [compound 124, trans-N^2-(4-Amino-cyclohexyl)-9-cyclopentyl-N^6-[1-(toluene-4-sulfonyl)-piperidin-4-yl]-9H-purine-2,6-diamine dihydrochloride] | 26 nM | 0.56 µM | 7.11 | 10 nM | 0.44 µM | – | – |
| CCCNC(=O)N1CCC(Nc2nc(N[C@H]3CC[C@H](N)CC3)nc3c2ncn3C2CCCC2)CC1 [compound 206, trans-4-[2-(4-Amino-cyclohexylamino)-9-cyclopentyl-9H-purin-6-ylamino]-piperidine-1-carboxylic acid propylamide dihydrochloride] | 7 nM | 2.89 µM | 7.07 | 210 nM | 2.68 µM | – | – |
| CC(C)n1cnc2c(NC3CCN(C(=O)COc4ccccc4)CC3)nc(N[C@H]3CC[C@H](N)CC3)nc21 [compound 80, trans-1-{4-[2-(4-Amino-cyclohexylamino)-9-isopropyl-9H-purin-6-ylamino]-piperidin-1-yl}-2-phenoxy-ethanone dihydrochloride] | 39 nM | > 50 µM | 5.09 | 244 nM | > 50 µM | – | – |
| CCCCS(=O)(=O)N1CCC(Nc2nc(N[C@H]3CC[C@H](N)CC3)nc3c2ncn3C2CCCC2)CC1 [compound 129, trans-N^2-(4-Amino-cyclohexyl)-N^6-[1-(butane-1-sulfonyl)-piperidin-4-yl]-9-cyclopentyl-9H-purine-2,6-diamine dihydrochloride] | 9 nM | 0.64 µM | 7.22 | 60 nM | 0.46 µM | – | – |
| CCCCC(=O)N1CCC(Nc2nc(N[C@H]3CC[C@H](N)CC3)nc3c2ncn3C2CCCC2)CC1 [compound 56, trans-1-{4-[2-(4-Amino-cyclohexylamino)-9-cyclopentyl-9H-purin-6-ylamino]-piperidin-1-yl}-pentan-1-one dihydrochloride] | 53 nM | 0.69 µM | 6.04 | 43 nM | 0.61 µM | – | – |
